From ChEMBL document CHEMBL1148173, “Three New Onnamide Congeners from the Okinawan Marine Sponge Theonella Sp” (J Nat Prod, 1993)
In brackets after ≈: the same amount, converted by molar mass.

What was measured:
KB = experiment: Cytotoxicity against human KB cells; format: functional, cell-based
L1210 = experiment: Cytotoxicity against mouse L1210 cells; format: functional, cell-based

C=C1C[C@](OC)([C@H](O)C(=O)N[C@H]2OCO[C@H]3[C@@H]2O[C@H](C[C@H](O)CCC/C=C/C=C\C=C\C(=O)N[C@@H](CCCNC(=N)N)C(=O)O)C(C)(C)[C@@H]3OC)O[C@H](C)[C@@H]1C [4Z-ONNAMIDE A]
IC50 (KB): 2.9 ng/mL (≈ 3.65 nM)
IC50 (L1210): 1.5 ng/mL (≈ 1.89 nM)

C=C1C[C@](OC)([C@H](O)C(=O)N[C@H]2OCO[C@H]3[C@@H]2O[C@H](CC(=O)CCCCC/C=C/C=C/C(=O)N[C@@H](CCCNC(=N)N)C(=O)O)C(C)(C)[C@@H]3OC)O[C@H](C)[C@@H]1C [6,7-DIHYDRO-11-OXO-ONNAMIDE A]
IC50 (KB): 23 ng/mL (≈ 29 nM)
IC50 (L1210): 16 ng/mL (≈ 20.2 nM)

C=C1C[C@](OC)([C@H](O)C(=O)N[C@H]2OCO[C@H]3[C@@H]2O[C@H](C[C@H](O)CCCCC/C=C/C=C/C(=O)N[C@@H](CCCNC(=N)N)C(=O)O)C(C)(C)[C@@H]3OC)O[C@H](C)[C@@H]1C [6,7-DIHYDRO-ONNAMIDE A]
IC50 (KB): 5 ng/mL (≈ 6.28 nM)
IC50 (L1210): 4.6 ng/mL (≈ 5.78 nM)

C=C1C[C@](OC)([C@H](O)C(=O)N[C@H]2OCO[C@H]3[C@@H]2O[C@H](CC(=O)CCC/C=C/C=C/C=C/C(=O)N[C@@H](CCCNC(=N)N)C(=O)O)C(C)(C)[C@@H]3OC)O[C@H](C)[C@@H]1C [11-OXO-ONNAMIDE A]
IC50 (KB): 13 ng/mL (≈ 16.4 nM)
IC50 (L1210): 9.2 ng/mL (≈ 11.6 nM)

C=C1C[C@](OC)([C@H](O)C(=O)N[C@H]2OCO[C@H]3[C@@H]2O[C@H](C[C@H](O)CCC/C=C/C=C/C=C/C(=O)N[C@@H](CCCNC(=N)N)C(=O)O)C(C)(C)[C@@H]3OC)O[C@H](C)[C@@H]1C [ONNAMIDE A]
IC50 (KB): 3.6 ng/mL (≈ 4.53 nM)
IC50 (L1210): 2 ng/mL (≈ 2.52 nM)
